# In ChEMBL document CHEMBL1811859, “Second-generation sulfonamide inhibitors of D-glutamic acid-adding enzyme: activity optimisation with conformationally rigid analogues of D-glutamic acid” (Eur J Med Chem, 2011):
# Legend:
# Micrococcus luteus = assay: Antimicrobial activity against Micrococcus luteus ATCC 9314 by broth dilution method; assay type: functional
# Escherichia coli [1] = assay: Inhibition of Escherichia coli MurD ligase assessed as residual activity at 1 mM after 30 mins
# Listeria innocua = assay: Antimicrobial activity against Listeria innocua ATCC 33090 by broth dilution method; assay type: functional
# Staphylococcus aureus [2] = assay: Antimicrobial activity against methicillin-resistant Staphylococcus aureus ATCC 43300 by broth dilution method; assay type: functional
# Proteus mirabilis = assay: Antimicrobial activity against Proteus mirabilis ATCC 29936 by broth dilution method; assay type: functional
# Enterococcus faecium = assay: Antimicrobial activity against Enterococcus faecium ATCC 19434 by broth dilution method; assay type: functional
# Listeria monocytogenes = assay: Antimicrobial activity against Listeria monocytogenes ATCC 14780 by broth dilution method; assay type: functional
# Enterococcus faecalis [3] = assay: Antimicrobial activity against Enterococcus faecalis ATCC 29212 by broth dilution method; assay type: functional
# Citrobacter freundii = assay: Antimicrobial activity against Citrobacter freundii ATCC 8090 by broth dilution method; assay type: functional
# Staphylococcus aureus [4] = assay: Antimicrobial activity against Staphylococcus aureus ATCC 25923 by broth dilution method; assay type: functional
# Klebsiella pneumoniae = assay: Antimicrobial activity against Klebsiella pneumoniae ATCC 13883 by broth dilution method; assay type: functional
# [5] = test system: Staphylococcus epidermidis; assay: Antimicrobial activity against Staphylococcus epidermidis ATCC 12228 by broth dilution method; assay type: functional
# Streptococcus pneumoniae [6] = assay: Antimicrobial activity against Streptococcus pneumoniae ATCC 49619 by broth dilution method; assay type: functional
# Streptococcus pneumoniae [7] = assay: Antimicrobial activity against Streptococcus pneumoniae ATCC 33400 by broth dilution method; assay type: functional
# Escherichia coli [8] = assay: Antimicrobial activity against Escherichia coli ATCC 8739 by broth dilution method; assay type: functional
# Pseudomonas aeruginosa = assay: Antimicrobial activity against Pseudomonas aeruginosa ATCC 27853 by broth dilution method; assay type: functional
# Streptococcus pneumoniae [9] = assay: Antimicrobial activity against Streptococcus pneumoniae D39 by broth dilution method; assay type: functional
# Enterococcus hirae = assay: Antimicrobial activity against Enterococcus hirae ATCC 9790 by broth dilution method; assay type: functional
# Staphylococcus aureus [10] = assay: Antimicrobial activity against methicillin-resistant Staphylococcus aureus PL1 by broth dilution method; assay type: functional
# Bacillus subtilis = assay: Antimicrobial activity against Bacillus subtilis ATCC 6633 by broth dilution method; assay type: functional
# Enterococcus faecalis [11] = assay: Antimicrobial activity against Enterococcus faecalis ATCC 19433 by broth dilution method; assay type: functional
# [12] = Inhibition of Escherichia coli MurD ligase assessed as addition of D-[3H]glu to UDP-N-acetyl-muramoyl-L-alanine after 30 mins
# Escherichia coli [13] = assay: Inhibition of Escherichia coli MurD ligase assessed as residual activity at 500 uM after 30 mins
SMILES,MIC (Micrococcus luteus) [µg/mL],MIC (Listeria innocua) [µg/mL],MIC (Staphylococcus aureus [2]) [µg/mL],MIC (Proteus mirabilis) [µg/mL],MIC (Enterococcus faecium) [µg/mL],MIC (Listeria monocytogenes) [µg/mL],MIC (Enterococcus faecalis [3]) [µg/mL],MIC (Citrobacter freundii) [µg/mL],MIC (Staphylococcus aureus [4]) [µg/mL],MIC (Klebsiella pneumoniae) [µg/mL],MIC [5] [µg/mL],MIC (Streptococcus pneumoniae [6]) [µg/mL],MIC (Streptococcus pneumoniae [7]) [µg/mL],MIC (Escherichia coli [8]) [µg/mL],MIC (Pseudomonas aeruginosa) [µg/mL],MIC (Streptococcus pneumoniae [9]) [µg/mL],MIC (Enterococcus hirae) [µg/mL],MIC (Staphylococcus aureus [10]) [µg/mL],MIC (Bacillus subtilis) [µg/mL],MIC (Enterococcus faecalis [11]) [µg/mL],also measured
CCCCOc1ccc2cc(S(=O)(=O)NC3CCC(C(=O)O)CC3C(=O)O)ccc2c1 (racemic),> 512,32,128,> 512,128,32,256,> 512,128,> 512,128,64,64,> 512,> 512,64,32,32,64,128,Activity (Escherichia coli [1]): 89%
N#Cc1ccc(COc2ccc3cc(S(=O)(=O)N[C@H](CCC(=O)O)C(=O)O)ccc3c2)c(F)c1,,,,,,,,,,,,,,,,,,,,,Ki [12]: 58 µM
CCCCOc1ccc2cc(S(=O)(=O)Nc3ccc(C(=O)O)cc3C(=O)O)ccc2c1,> 512,> 512,> 512,> 512,> 512,> 512,> 512,> 512,> 512,> 512,> 512,> 512,> 512,> 512,> 512,> 512,> 512,> 512,> 512,> 512,Activity (Escherichia coli [1]): 8%; IC50 [12]: 127 µM; Ki [12]: 87 µM
N#Cc1ccc(COc2ccc3cc(S(=O)(=O)Nc4cc(C(=O)O)cc(C(=O)O)c4)ccc3c2)c(F)c1,> 512,> 512,> 512,> 512,> 512,> 512,> 512,> 512,> 512,> 512,> 512,> 512,> 512,> 512,> 512,> 512,> 512,> 512,> 512,> 512,Activity (Escherichia coli [1]): 2%; IC50 [12]: 50 µM; Ki [12]: 34 µM
CCCCOc1ccc2cc(S(=O)(=O)Nc3cc(C(=O)O)cc(C(=O)O)c3)ccc2c1,> 512,> 512,> 512,> 512,> 512,> 512,> 512,> 512,> 512,> 512,> 512,> 512,> 512,> 512,> 512,> 512,> 512,> 512,> 512,> 512,Activity (Escherichia coli [13]): 70%
CCCCOc1ccc2cc(S(=O)(=O)N[C@H](CCC(=O)O)C(=O)O)ccc2c1,,,,,,,,,,,,,,,,,,,,,IC50 [12]: 280 µM; Ki [12]: 192 µM
CCCCOc1ccc2cc(S(=O)(=O)N[C@@H]3CCCC[C@H]3C(=O)O)ccc2c1,> 512,32,256,> 512,256,32,256,> 512,256,> 512,256,64,64,> 512,> 512,64,64,256,64,512,Activity (Escherichia coli [1]): 100%
N#Cc1ccc(COc2ccc3cc(S(=O)(=O)Nc4cc(C(=O)O)ccc4C(=O)O)ccc3c2)c(F)c1,> 512,> 512,> 512,> 512,> 512,> 512,> 512,> 512,> 512,> 512,> 512,> 512,> 512,> 512,> 512,> 512,> 512,> 512,> 512,> 512,Activity (Escherichia coli [1]): 2%; IC50 [12]: 38 µM; Ki [12]: 26 µM
N#Cc1ccc(COc2ccc3cc(S(=O)(=O)Nc4ccc(C(=O)O)cc4C(=O)O)ccc3c2)c(F)c1,> 512,> 512,> 512,> 512,> 512,> 512,> 512,> 512,> 512,> 512,> 512,> 512,> 512,> 512,> 512,> 512,> 512,> 512,> 512,> 512,Activity (Escherichia coli [1]): 0.79%; IC50 [12]: 8.4 µM; Ki [12]: 5.8 µM
